Test results from ChEMBL document CHEMBL1201862, “PubChem BioAssay data set” (2004).
Activity calls are given as the source filed them.

How the values were obtained:
[1] = molecular target: Serine/threonine-protein phosphatase PP1-alpha catalytic subunit (Homo sapiens, UniProt P62136); experiment: inhibition of protein phosphatase 1 activity – biochemical, fluorescence, dose response (AID 2403);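 further: phosphatase turnover of OMFP into fluorescent 3-O-methylfluorescein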
[2] = molecular target: Serine/threonine-protein phosphatase (Homo sapiens, UniProt Q9BPW0); experiment: Counterscreen for inhibitors of PP1: fluorescence-based biochemical high throughput dose response assay to identify inhibitors of Protein Phosphatase 5 (PP5). [Related pubchem assays: 2034 (Summary (PP5 inhibitors)), 1987 (PP5 inhibitors in singlate), 2235 (PP1 inhibitors in singlate)]
Serine/threonine-protein phosphatase, sequence (Q9BPW0 whole entry): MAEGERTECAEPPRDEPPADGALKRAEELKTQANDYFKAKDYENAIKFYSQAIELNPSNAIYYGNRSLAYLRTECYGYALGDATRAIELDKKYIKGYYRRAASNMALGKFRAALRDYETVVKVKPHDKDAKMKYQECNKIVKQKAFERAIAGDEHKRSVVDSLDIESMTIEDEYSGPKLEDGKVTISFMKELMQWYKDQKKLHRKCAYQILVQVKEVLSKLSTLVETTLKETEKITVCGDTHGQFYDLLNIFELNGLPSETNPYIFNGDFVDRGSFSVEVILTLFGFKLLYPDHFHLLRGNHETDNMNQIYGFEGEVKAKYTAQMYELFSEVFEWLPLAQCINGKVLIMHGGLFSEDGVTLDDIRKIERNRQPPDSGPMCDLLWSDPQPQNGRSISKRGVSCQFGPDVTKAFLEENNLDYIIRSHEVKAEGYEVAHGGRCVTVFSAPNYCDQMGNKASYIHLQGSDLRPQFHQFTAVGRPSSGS

[3] = system: Streptococcus; experiment: GAS UMAA2166 growth inhibition – luminescence, BacTiterGlo, counter-screen for streptokinase expression inhibitor project, dose response (AID 1915); format: functional, organism-based;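 further: potency for reduction of bacterial viability or growth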
[4] = molecular target: Induced myeloid leukemia cell differentiation protein Mcl-1 (Homo sapiens, UniProt Q07820); format: functional
Induced myeloid leukemia cell differentiation protein Mcl-1, sequence (Q07820 whole entry): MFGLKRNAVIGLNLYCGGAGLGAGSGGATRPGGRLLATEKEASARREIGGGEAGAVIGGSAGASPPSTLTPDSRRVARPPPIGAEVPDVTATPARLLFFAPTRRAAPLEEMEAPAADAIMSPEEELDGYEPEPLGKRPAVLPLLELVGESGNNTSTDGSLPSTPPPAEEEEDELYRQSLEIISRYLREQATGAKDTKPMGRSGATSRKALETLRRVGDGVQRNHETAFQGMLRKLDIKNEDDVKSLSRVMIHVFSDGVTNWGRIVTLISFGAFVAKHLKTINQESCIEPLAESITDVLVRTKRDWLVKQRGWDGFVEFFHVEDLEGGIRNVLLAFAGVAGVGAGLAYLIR

[5] = system: Streptococcus sp. 'group A'; experiment: Streptococcus pyogenes SK(-)GAS viability under kanamycin – luminescence, BacTiterGlo, confirmation, counter-screen for streptokinase expression inhibitor project, dose response (AID 1900); format: functional, organism-based
[6] = molecular target: T1, Streptokinase A (Streptococcus pyogenes serotype M1, UniProt P10520); experiment: viability-normalized secreted streptokinase activity reduction – plasminogen activation absorbance, OD405, dose response (AID 1914); format: functional, Streptococcus pyogenes M1 GAS;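 further: secreted streptokinase activity via plasminogen activation per viability signal from cell pellet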
T1 sequence (P10520 whole entry): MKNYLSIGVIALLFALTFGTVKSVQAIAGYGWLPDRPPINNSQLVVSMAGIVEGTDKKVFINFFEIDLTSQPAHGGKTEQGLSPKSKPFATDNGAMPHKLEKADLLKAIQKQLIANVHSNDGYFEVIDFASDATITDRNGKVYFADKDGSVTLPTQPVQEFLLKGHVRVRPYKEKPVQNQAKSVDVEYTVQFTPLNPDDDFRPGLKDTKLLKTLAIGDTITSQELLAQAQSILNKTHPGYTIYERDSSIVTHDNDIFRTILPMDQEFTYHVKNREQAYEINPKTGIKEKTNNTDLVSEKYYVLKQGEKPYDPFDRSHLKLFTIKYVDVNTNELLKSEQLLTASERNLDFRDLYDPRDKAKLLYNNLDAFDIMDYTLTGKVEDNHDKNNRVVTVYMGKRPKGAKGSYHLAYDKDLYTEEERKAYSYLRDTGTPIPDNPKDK

[7] = molecular target: T2, Aminopeptidase N (Plasmodium falciparum FcB1/Columbia, UniProt O96935); experiment: malaria alanyl aminopeptidase activity blockers – biochemical, fluorogenic H-Leu-NHMec substrate, 1536-well (AID 1445); set-up: species or system Plasmodium falciparum 3D7, 3D7
T2 sequence (O96935 whole entry): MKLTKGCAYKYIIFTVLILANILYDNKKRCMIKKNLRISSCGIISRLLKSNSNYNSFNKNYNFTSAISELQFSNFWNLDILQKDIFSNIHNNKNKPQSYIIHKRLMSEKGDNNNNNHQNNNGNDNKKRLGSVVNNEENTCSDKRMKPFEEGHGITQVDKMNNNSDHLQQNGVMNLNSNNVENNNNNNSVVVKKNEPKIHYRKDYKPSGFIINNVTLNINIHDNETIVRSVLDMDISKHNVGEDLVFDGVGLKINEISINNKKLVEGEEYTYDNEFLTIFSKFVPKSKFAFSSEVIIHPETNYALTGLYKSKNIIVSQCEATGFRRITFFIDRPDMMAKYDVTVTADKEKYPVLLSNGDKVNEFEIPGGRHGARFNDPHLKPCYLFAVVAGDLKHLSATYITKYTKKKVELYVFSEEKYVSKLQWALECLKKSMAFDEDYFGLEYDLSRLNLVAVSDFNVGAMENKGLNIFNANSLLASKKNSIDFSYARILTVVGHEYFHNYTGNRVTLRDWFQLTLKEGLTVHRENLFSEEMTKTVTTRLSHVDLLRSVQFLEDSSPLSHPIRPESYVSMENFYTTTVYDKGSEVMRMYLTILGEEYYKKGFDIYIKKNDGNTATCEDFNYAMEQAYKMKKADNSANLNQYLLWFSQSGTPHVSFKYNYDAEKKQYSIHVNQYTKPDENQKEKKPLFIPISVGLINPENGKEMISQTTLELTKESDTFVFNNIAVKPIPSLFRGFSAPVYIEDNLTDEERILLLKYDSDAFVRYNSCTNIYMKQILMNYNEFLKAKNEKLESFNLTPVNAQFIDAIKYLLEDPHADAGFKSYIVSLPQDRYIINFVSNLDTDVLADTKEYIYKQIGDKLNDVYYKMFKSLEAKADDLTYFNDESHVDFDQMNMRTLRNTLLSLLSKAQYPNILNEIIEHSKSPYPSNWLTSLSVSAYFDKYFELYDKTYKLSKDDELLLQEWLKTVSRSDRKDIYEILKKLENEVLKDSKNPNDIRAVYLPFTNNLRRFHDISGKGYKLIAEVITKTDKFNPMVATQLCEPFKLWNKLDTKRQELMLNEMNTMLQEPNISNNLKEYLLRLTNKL

[8] = molecular target: T3, Short transient receptor potential channel 4 (Mus musculus, UniProt Q9QUQ5); experiment: block of DAMGO-driven TRPC4 calcium entry – cell-based, HEK293 TRPC4/mu-opioid, Fluo-4 calcium, dose response (AID 434942); format: functional;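 further: potency of inhibitors blocking the TRPC4 calcium response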
T3 sequence (Q9QUQ5 whole entry): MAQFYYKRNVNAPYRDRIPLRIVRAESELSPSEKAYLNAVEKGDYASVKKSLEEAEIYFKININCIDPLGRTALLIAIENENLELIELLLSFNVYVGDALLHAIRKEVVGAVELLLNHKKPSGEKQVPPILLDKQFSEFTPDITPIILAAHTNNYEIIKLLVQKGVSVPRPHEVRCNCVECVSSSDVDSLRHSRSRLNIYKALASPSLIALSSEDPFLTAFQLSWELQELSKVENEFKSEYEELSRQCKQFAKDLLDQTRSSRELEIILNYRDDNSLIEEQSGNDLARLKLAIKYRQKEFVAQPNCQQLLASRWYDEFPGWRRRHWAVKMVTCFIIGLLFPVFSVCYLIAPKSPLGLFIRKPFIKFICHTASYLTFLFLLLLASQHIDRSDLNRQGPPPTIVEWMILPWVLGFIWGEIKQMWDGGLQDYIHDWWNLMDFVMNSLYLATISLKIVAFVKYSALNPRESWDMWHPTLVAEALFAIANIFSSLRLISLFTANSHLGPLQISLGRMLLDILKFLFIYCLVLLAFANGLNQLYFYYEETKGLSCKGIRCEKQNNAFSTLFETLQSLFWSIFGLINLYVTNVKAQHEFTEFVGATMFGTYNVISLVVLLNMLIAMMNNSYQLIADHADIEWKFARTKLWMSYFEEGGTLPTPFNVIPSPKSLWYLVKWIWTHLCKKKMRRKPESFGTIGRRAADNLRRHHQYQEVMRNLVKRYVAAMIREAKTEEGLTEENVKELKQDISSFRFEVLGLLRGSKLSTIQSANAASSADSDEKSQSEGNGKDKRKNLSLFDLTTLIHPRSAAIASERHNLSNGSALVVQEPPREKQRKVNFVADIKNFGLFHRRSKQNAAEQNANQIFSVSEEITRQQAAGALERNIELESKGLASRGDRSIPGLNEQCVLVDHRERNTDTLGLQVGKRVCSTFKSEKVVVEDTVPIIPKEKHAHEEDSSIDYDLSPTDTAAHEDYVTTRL

[9] = antiviral protection against BTV-induced cell death – arbovirus, BSR cells, confirmation (AID 1250); format: functional;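 further: protection from viral cytopathic effect measured as cell viability by ATP luminescence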
[10] = molecular target: T4, Leucine aminopeptidase (Plasmodium falciparum 3D7, UniProt Q8IL11); experiment: P. falciparum M17LAP inhibitors, primary screen, biochemical, fluorogenic H-Leu-NHMec substrate, 1536-well (AID 1619); format: functional
T4 sequence (Q8IL11 whole entry): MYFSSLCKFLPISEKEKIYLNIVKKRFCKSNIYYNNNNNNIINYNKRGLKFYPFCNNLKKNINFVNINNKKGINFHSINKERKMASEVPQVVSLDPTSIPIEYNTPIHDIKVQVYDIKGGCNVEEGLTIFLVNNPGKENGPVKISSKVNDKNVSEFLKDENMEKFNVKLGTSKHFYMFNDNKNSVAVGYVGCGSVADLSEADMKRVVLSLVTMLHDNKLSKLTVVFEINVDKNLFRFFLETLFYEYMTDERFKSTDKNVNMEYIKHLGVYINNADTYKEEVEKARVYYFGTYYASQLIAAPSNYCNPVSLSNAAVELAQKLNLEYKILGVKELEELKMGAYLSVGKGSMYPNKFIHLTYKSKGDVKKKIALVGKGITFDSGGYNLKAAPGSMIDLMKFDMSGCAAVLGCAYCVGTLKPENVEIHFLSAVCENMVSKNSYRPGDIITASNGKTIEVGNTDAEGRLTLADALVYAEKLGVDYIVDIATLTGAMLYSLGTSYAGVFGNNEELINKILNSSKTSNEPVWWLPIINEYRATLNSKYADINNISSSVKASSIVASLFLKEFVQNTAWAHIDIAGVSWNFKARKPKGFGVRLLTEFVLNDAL

[11] = molecular target: T5, Bcl-2-like protein 10 (Homo sapiens, UniProt Q9HD36); experiment: Concentration-response of Bcl-B inhibitors by biochemical FP with TR3 (AID 1243); format: functional
T5 sequence (Q9HD36 whole entry): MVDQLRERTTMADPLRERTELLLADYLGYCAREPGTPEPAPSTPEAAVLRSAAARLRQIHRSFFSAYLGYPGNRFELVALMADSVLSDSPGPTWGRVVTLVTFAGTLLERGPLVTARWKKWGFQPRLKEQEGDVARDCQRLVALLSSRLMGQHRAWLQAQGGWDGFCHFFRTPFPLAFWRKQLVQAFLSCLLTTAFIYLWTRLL

[12] = molecular target: Melanin-concentrating hormone receptor 1 (Homo sapiens, UniProt Q99705); experiment: Fluorescence-based counterscreen for antagonists of the G-protein coupled receptor 7 (GPR7): cell-based high throughput dose response assay to identify antagonists of the melanin-concentrating hormone receptor 1 (MCHR1).; format: functional
Melanin-concentrating hormone receptor 1, sequence (Q99705 whole entry): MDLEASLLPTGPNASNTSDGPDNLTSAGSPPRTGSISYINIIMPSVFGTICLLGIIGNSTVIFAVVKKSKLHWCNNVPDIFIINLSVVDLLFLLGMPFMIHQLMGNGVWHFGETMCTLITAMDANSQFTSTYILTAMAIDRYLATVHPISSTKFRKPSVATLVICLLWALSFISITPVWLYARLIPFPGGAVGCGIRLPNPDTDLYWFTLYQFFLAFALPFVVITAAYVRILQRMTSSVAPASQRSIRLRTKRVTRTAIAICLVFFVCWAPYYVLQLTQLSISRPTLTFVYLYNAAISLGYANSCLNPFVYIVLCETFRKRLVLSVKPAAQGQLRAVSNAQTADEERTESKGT

[13] = molecular target: T6, Neuropeptides B/W receptor type 1 (Homo sapiens, UniProt P48145); experiment: Fluorescence-based dose response cell-based high throughput screening assay to identify antagonists of the G-protein coupled receptor 7 (GPR7). [Related pubchem assays: 1952 (Screening assay (GPR7 antagonists).), 1880 (Summary AID.)]; format: functional
T6 sequence (P48145 whole entry): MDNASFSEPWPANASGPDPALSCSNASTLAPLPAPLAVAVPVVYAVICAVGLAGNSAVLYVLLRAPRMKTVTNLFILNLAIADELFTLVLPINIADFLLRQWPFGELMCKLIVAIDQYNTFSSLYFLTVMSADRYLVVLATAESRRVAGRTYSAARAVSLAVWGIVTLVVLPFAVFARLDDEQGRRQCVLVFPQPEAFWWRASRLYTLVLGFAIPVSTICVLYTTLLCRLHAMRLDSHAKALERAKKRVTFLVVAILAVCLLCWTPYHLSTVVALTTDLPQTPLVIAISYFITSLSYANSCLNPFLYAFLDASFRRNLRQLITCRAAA

[14] = molecular target: Cytochrome P450 2C9 (Homo sapiens, UniProt P11712); conditions: Potency
Cytochrome P450 2C9, sequence (P11712 whole entry): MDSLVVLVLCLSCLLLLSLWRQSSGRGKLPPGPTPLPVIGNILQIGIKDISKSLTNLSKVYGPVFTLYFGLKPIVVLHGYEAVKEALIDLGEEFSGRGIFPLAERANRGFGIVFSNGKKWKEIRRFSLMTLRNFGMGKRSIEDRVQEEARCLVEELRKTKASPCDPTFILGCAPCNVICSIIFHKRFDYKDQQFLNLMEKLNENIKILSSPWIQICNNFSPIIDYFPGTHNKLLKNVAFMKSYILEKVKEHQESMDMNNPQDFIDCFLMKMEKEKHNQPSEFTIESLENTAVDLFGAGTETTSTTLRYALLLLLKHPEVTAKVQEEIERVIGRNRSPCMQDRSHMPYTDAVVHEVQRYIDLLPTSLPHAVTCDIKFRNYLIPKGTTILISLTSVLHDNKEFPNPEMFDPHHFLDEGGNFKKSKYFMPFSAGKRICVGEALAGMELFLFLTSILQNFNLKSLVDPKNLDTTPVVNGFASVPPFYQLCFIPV

[15] = molecular target: Neuropeptide Y receptor type 2 (Homo sapiens, UniProt P49146); experiment: Fluorescence-based cell-based high-throughput dose response assay for agonists of NPY-Y2. [Related pubchem assays: 1703 (Screening assay (CNGC inhibitors).), 1359 (Screening assay (NPY-Y2 potentiators or agonists).), 1304 (Screening assay (NPY-Y1 potentiators or agonists).), 1710 (Screening assay (NPY-Y2 agonists).), 1791 (Summary AID.)]; format: functional
Neuropeptide Y receptor type 2, sequence (P49146 whole entry): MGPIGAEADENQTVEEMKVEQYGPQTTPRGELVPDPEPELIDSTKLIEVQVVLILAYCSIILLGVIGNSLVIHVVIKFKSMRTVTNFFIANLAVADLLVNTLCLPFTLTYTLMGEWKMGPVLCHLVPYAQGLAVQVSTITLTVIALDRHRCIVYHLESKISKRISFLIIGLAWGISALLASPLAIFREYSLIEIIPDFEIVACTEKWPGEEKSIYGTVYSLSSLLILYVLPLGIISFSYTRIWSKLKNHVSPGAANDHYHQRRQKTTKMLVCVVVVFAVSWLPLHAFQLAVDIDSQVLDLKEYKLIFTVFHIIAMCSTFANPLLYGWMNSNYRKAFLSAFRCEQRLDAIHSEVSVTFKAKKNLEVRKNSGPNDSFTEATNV

[16] = molecular target: Neuropeptide Y receptor type 1 (Homo sapiens, UniProt P25929); experiment: Fluorescence-based counterscreen for agonists of NPY-Y2: cell-based high-throughput dose response assay for agonists of NPY-Y1.; format: functional
Neuropeptide Y receptor type 1, sequence (P25929 whole entry): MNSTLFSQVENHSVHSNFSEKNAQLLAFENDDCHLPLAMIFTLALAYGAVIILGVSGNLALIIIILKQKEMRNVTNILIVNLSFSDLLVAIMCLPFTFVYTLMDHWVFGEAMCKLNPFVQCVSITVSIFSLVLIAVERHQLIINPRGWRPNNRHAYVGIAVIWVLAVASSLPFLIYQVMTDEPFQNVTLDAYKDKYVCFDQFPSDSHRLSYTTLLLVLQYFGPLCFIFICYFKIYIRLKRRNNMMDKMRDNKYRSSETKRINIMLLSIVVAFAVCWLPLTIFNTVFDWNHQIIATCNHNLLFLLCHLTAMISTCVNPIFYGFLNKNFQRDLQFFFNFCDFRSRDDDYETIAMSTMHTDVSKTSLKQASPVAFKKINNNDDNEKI

[17] = system: HEK293; experiment: Fluorescence-based counterscreen for potentiators or agonists of NPY-Y2: cell-based high-throughput dose response assay to identify inhibitors of cyclic nucleotide gated ion channel (CNGC) activity. In this assay, the parental HEK293 cell line transfected with a cyclic-nucleotide gated ion channel (CNGC)-based cAMP sensor is used to measure inhibition of isoproterenol-induced CNGC activity by test compound.; format: functional; conditions: Homo sapiens;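 further: stimulus is 1 µM isoproterenol at EC100 plus PDE inhibitor Ro 20-1724 at 25 µM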

Serine/threonine-protein phosphatase PP1-alpha catalytic subunit, sequence (P62136 whole entry): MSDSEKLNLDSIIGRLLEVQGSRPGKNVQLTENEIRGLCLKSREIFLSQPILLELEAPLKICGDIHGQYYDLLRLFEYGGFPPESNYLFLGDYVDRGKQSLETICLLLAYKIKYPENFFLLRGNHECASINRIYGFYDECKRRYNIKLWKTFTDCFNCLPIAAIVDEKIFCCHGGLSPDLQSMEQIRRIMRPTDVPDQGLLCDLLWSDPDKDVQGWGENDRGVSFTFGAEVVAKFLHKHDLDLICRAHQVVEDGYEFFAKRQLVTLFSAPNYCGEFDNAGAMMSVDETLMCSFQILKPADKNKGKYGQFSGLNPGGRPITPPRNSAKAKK

With `CCOC(=O)c1sc2nc3c(SCC(=O)O)cc(C(=O)c4cc(F)ccc4O)cn3c(=O)c2c1C` the IC50 [1] was 5.11 µM (active), the IC50 [2] was > 67 µM (not active) and the EC50 [3] was 141 µM (active). The IC50 [4] was 2.63 µM (active), the EC50 [5] was 1.86 µM (active) and the EC50 [6] was 15.4 µM (active). For the same compound, the IC50 [7] was 21.9 µM (active).
In the case of `Cc1ccc(-c2csc(NC(=O)C3CC=CCC3C(=O)O)c2C(=O)OC(C)C)cc1` (configuration not stated), the EC50 [8] was 5.96 µM (active), the IC50 [9] was 39.4 µM (active) and the IC50 [10] was 9.13 µM (active).
In the case of `CN1CCN(CN2C(=O)/C(=N\NC(=O)CSc3nc4ccccc4s3)c3ccccc32)CC1`, the EC50 [11] was 12.9 µM (active).
For `CCCCNc1nc2ccccc2n1CC(=O)Nc1c(C)cccc1CC`, the IC50 [12] was 31.7 µM (not active) and the IC50 [13] was > 43.8 µM (not active).
For `Cc1ccccc1OC1C=CC(C#Cc2ccc(Br)cc2)OC1CO` (configuration not stated), the AC50 [14] was 3.98 µM (inconclusive).
In the case of `Fc1ccc2c(c1)/C(=N/Nc1ccccn1)CCS2`, the EC50 [15] was 11.3 µM (not active), the EC50 [16] was 12.4 µM (not active) and the EC50 [17] was 7.7 µM (active).
